# Assay results as given in patent publication US20260049089A1, “KRAS INHIBITOR COMPOUND” (SHANGHAI APEIRON THERAPEUTICS COMPANY LIMITED, priority 2022, published 2026).
# Values joined by “and” are separate entries in the source; they are usually repeats but may differ in a detail not shown here. Equal entries are not always repeated. Where two headings read alike, the source gives them in different places.
# How the values were obtained:
# Type in all cases: cell-based
# pERK in AGS cells = assay: ERK phosphorylation cell assay, AGS; details: 3 hours compound incubation, read-out: pERK AGS_IC50
# Protocol: (§1) • Day 1: AGS cells were seeded into a 384-well cell culture plate and incubated overnight at 37° C. with 5% CO2 in a cell culture incubator. • Day 2: Compounds were added to the plate using an Echo550 liquid handler, followed by incubation at 37° C. with 5% CO2 in a cell culture incubator for 3 hours. Subsequently, the cells were fixed with paraformaldehyde, permeabilized with methanol, and blocked with blocking buffer. A primary antibody mixture (rabbit anti-pERK, mouse anti-GAPDH) was added, and the plate was incubated overnight at 4° C. • Day 3: The primary antibodies were removed, and a secondary antibody mixture (goat anti-rabbit 800CW, goat anti-mouse 680RD) was added. The plate was incubated at room temperature in the dark. After three washes with PBST, the plate was inverted and centrifuged for 1 minute. Fluorescence signal values were read using an Odyssey CLx imaging system.
# (§2) [formula] • Negative control: DMSO • Positive control: 10 μM Reference • Fitted using XLFit 5.0 with the following parameters:
# (§3) [formula] • X: Log of compound concentration • Y: Mean relative expression levels of p-ERK across replicates
# AsPC-1 cells = assay: 3D cell proliferation assay (CellTiter-Glo 3D), AsPC-1; details: 5 days, read-out: 3D Proliferation Inhibition AsPC-1_IC50
# Protocol: (§4) Using a nanoliter liquid handling system (LABCYTE, P-0200), the diluted test compounds were added to a 384-well low-adsorption cell culture plate. Cells were seeded into the wells, and the plate was placed in an incubator at 37° C. with 5% CO2. After co-incubating the compounds and cells for 5 days, CellTiter-Glo® 3D reagent was added. Luminescence values were measured using an EnVision Multilabel Plate Reader (luminescence is proportional to the ATP content in the system, and ATP content directly reflects the number of viable cells). Finally, the IC50 values (half-maximal inhibitory concentrations) of the compounds were determined using non-linear fitting equations in XLFit software with the following parameters: […]
# (§5) X: Logarithm of compound concentration • Y: Inhibition rate (%)
# (§6) [formula] • Negative control: DMSO • Positive control: Medium only
# pERK in AsPC-1 cells = assay: ERK phosphorylation cell assay, AsPC-1; details: read-out: pERK AsPC-1_IC50
# Protocol: [Worded in the source for another cell line; this cell line is reported under the same test.] as §1, §2, §3
# AGS cells = assay: 3D cell proliferation assay (CellTiter-Glo 3D), AGS; details: 5 days, read-out: 3D Proliferation Inhibition AGS_IC50
# Protocol: as §4, §5, §6
# [1] = Homo sapiens, ASPC1, AsPC-1 cells
Molecule,"IC50 (pERK in AGS cells; Homo sapiens, AGS, 3 h) [nM]","IC50 (AsPC-1 cells; Homo sapiens, ASPC1, 120 h) [nM]",IC50 (pERK in AsPC-1 cells; [1]) [nM],"IC50 (AGS cells; Homo sapiens, AGS, 120 h) [nM]",IC50 (pERK in AGS cells) [nM],IC50 (AsPC-1 cells),IC50 (pERK in AsPC-1 cells; AsPC-1 cells) [nM],IC50 (AGS cells)
C[C@@]1(O)CCCN(c2nc(OCC34CCCN3CC(F)(F)C4)nc3c(F)c4c(cc23)NCCCCCc2c(F)ccc3cc(O)cc-4c23)C1 (some centres unmarked) [Example 36],1390,2480,3910,1880,–,–,–,–
"CN1CCCCc2c(F)ccc3cc(O)cc(c23)-c2c1cc1c(N3CC4CCC(C3)N4)nc(OC[C@@]34CCCN3C[C@H](F)C4)nc1c2F [Example 3, 10-((1R,5S)-3,8-Diazabicyclo[3.2.1]octan-3-yl)-3,14-difluoro-12-(((2R,7aS)-2-fluorotetrahydro-1H-pyrazin-7a(5H)-yl)methoxy)-8-methyl-5,6,7,8-tetrahydro-4H-naphtho[1′,8′:4,5,6]acridin[2,3-g]quinazolin-16-ol]",47,393,104,329,–,–,–,–
"CN1CC(F)(F)C[C@H]1COc1nc(N2CCC[C@@](C)(O)C2)c2cc3c(c(F)c2n1)-c1cc(O)cc2ccc(F)c(c12)CCCCCN3 [Example 34, 13-(((S)-4,4-difluoro-1-methylpyrrolidin-2-yl)methoxy)-3,15-difluoro-11-((R)-3-hydroxy-3-methylpiperidin-1-yl)-4,5,6,7,8,9-hexahydro-naphtho[1′,8′:4,5,6][1]azacycloundecino[2,3-g]quinazoline-17-ol]",8960,3350,> 10000,3660,–,–,–,–
"CN1CCC[C@H]1COc1nc(N2CCC[C@@](C)(O)C2)c2cc3c(c(F)c2n1)-c1cc(O)cc2ccc(F)c(c12)CCCCCN3 (single isomer, unassigned) [Example 28B]",–,–,–,–,> 10000,3550 nM,> 10000,3360 nM
C[C@@]1(O)CCCN(c2nc(OCC3(CN4CCOCC4)CC3)nc3c(F)c4c(cc23)NCCCCCc2c(F)ccc3cc(O)cc-4c23)C1 [Example 26],51,607,218,393,74,–,234,–
"C=C1CN2CCCC2(COc2nc(N3CCC[C@@](C)(O)C3)c3cc4c(c(F)c3n2)-c2cc(O)cc3ccc(F)c(c23)CCCCCN4C)C1 (single isomer, unassigned) [Example 22A]",–,–,–,–,26,166 nM,85,90 nM
"C=C1CN2CCC[C@@]2(COc2nc(N3CCC[C@@](C)(O)C3)c3cc4c(c(F)c3n2)-c2cc(O)cc3ccc(F)c(c23)CCOCCN4)C1 (single isomer, unassigned) [Example 42B]",–,–,–,–,12,341 nM,74,61 nM
C[C@@]1(O)CCCN(c2nc(OC[C@@]34CCCN3C[C@H](F)C4)nc3c(F)c4c(cc23)NCCOCCc2c(F)ccc3cc(O)cc-4c23)C1 [Example 43B],61,434,108,148,–,–,–,–
"3,15-difluoro-13-((2R,7aS)-2-fluorotetrahydro-1H-pyrazin-7a(5H)-yl)methoxy)-11-((R)-3-hydroxy-3-methylpiperidin-1-yl)-4,5,8,9-tetrahydro-7H-naphtho[1′,8′:7,8,9][1]oxa[4]azacycloundeca[5,6-g]quinazoline-17-ol [Example 43A]",–,–,–,–,4.6,60 nM and 55 nM,15,22 nM and 24 nM
CN(C)CC1(COc2nc(N3CCC[C@@](C)(O)C3)c3cc4c(c(F)c3n2)-c2cc(O)cc3ccc(F)c(c23)CCCCCN4)CC1 [Example 27],99,1000,338,314,–,–,–,–
C[C@@]1(O)CCCN(c2nc(OCC34CCCN3CC3(CC3)C4)nc3c(F)c4c(cc23)NCCCCCc2c(F)ccc3cc(O)cc-4c23)C1 (some centres unmarked) [Example 23],135,2100,728,346,157,–,754,–
"C=C1CN2CCC[C@@]2(COc2nc(N3CCC[C@@](C)(O)C3)c3cc4c(c(F)c3n2)-c2cccc3ccc(F)c(c23)CCOCCN4C)C1 [Example 54, (R)-1-(3,15-difluoro-9-methyl-13-(((S)-2-methylenetetrahydro-1H-pyrazin-7a(5H)-yl)methoxy)-4,5,8,9-tetrahydro-7H-naphtho[1′,8′:7,8,9][1]oxa[4]azacycloundeca[5,6-g]quinazoline-11-yl)-3-methylpiperidin-3-ol]",659,1260,892,885,–,–,–,–
"C=C1CN2CCC[C@@]2(COc2nc(N3CCC[C@@](C)(O)C3)c3cc4c(c(F)c3n2)-c2cc(O)cc3ccc(F)c(c23)CCOCCN4)C1 (single isomer, unassigned) [Example 42A]",–,–,–,–,26,456 nM,134,125 nM
"CN1CCC[C@H]1COc1nc(N2CCC[C@@](C)(O)C2)c2cc3c(c(F)c2n1)-c1cc(O)cc2ccc(F)c(c12)CCCCCN3 (single isomer, unassigned) [Example 28A]",–,–,–,–,194,1760 nM,776,430 nM
C=C1CN2C[C@H](F)C[C@]2(COc2nc(N3CCC[C@@](C)(O)C3)c3cc4c(c(F)c3n2)-c2cc(O)cc3ccc(F)c(c23)CCOCCN4C)C1 [Example 49],20,112,17,83,–,–,–,–
"Oc1cc2c3c(c(F)ccc3c1)CCCCCNc1cc3c(N4CC5CCC(C4)N5)nc(OC[C@@]45CCCN4C[C@H](F)C5)nc3c(F)c1-2 [Example 5, 11-((1R,5S)-3,8-Diazabicyclo[3.2.1]octane-3-yl)-3,15-difluoro-13-(((2R,7aS)-2-fluorotetrahydro-1H-pyrrolin-7a(5H)-yl)methoxy)-4,5,6,7,8,9-hexahydro-naphtho[1′,8′:4,5,6][1]azacycloundecino[2,3-g]quinazolin-17-ol]",12,196,41,128,–,–,–,–
"C[C@@]1(O)CCCN(c2nc(OCC3(N4CCOCC4)CC3)nc3c(F)c4c(cc23)NCCCCCc2c(F)ccc3cc(O)cc-4c23)C1 (single isomer, unassigned) [Example 33B]",–,–,–,–,> 10000,4670 nM,> 10000,3080 nM
"O=C1CCCCCc2c(F)ccc3cc(O)cc(c23)-c2c(cc3c(N4CC5CCC(C4)N5)nc(OC[C@@]45CCCN4C[C@H](F)C5)nc3c2F)N1 [Example 9, 12-((1R,5S)-3,8-diazabicyclo[3.2.1]octan-3-yl)-3,16-difluoro-14-(((2R,7aS)-2-fluorotetrahydro-1H-pyrazin-7a(5H)-yl)methoxy)-18-hydroxy-5,6,7,8-tetrahydro-4H-naphtho[1′,8′:4,5,6][1]azacyclododecino[2,3-g]quinazolin-9(10H)-one]",–,–,–,51,18,613 nM,118,–
"C[C@@]1(O)CCCN(c2nc(OCC3(N4CCOCC4)CC3)nc3c(F)c4c(cc23)NCCCCCc2c(F)ccc3cc(O)cc-4c23)C1 (single isomer, unassigned) [Example 33A]",> 10000,–,> 10000,2310,–,1490 nM,–,–
"C=C1CN2CCCC2(COc2nc(N3CCC[C@@](C)(O)C3)c3cc4c(c(F)c3n2)-c2cc(O)cc3ccc(F)c(c23)CCCCCN4C)C1 (single isomer, unassigned) [Example 22B]",–,–,–,–,430,1790 nM,898,553 nM
"CN(C)C1CN(c2nc(N3CCC[C@@](C)(O)C3)c3cc4c(c(F)c3n2)-c2cc(O)cc3ccc(F)c(c23)CCCCCN4)C1 [Example 39, (R)-13-(3-(dimethylamino)azetidinyl)-3,15-difluoro-11-(3-hydroxy-3-methylpiperidin-1-yl)-4,5,6,7,8,9-hexahydro-naphtho[1′,8′:4,5,6][1]azacycloundecino[2,3-g]quinazoline-17-ol]",> 10000,> 10000,> 10000,6390,–,–,–,–
"C[C@@]1(O)CCCN(c2nc(OC[C@@]34CCCN3C[C@H](F)C4)nc3c(F)c4c(cc23)NCCOCCc2c(F)ccc3cccc-4c23)C1 (single isomer, unassigned) [Example 52B]",–,> 10000,–,> 10000,> 10000,–,> 10000,–
